Data reported in PMC6813460, “Enhancing PLP-Binding Capacity of Class-III ω-Transaminase by Single Residue Substitution” (Frontiers in Bioengineering and Biotechnology, 2019).
Each block holds one compound with its values, some of them ahead of it.

Legend:
[1] = biological target: Pseudomonas fluorescens ω-transaminase (Pseudomonas fluorescens); experiment: crystal structure; PfTA crystallised with PLP; sitting drop vapor diffusion at 20°C; 6 mg/mL protein in 50 mM HEPES pH 7.5, 300 mM NaCl, 0.1 mM PLP, 1% glycerol, 20 mM DTT mixed 1:1 with 0.1 M sodium citrate pH 5.6, 12% w/v PEG 6000, 0.1 M lithium sulfate; 2.2 Å; interfaces analysed with the PISA server
[2] = biological target: PfTA (Pseudomonas fluorescens); experiment: differential scanning fluorimetry (SYPRO Orange), T1/[…] vs PLP, 1-site fit; assay type: binding; details: apo form, 1 mg/mL protein, PLP 1–250 μM, 50 mM phosphate pH 8; cofactor forms internal aldimine (covalent)
CvTA [3] = biological target: T1, CvTA (Chromobacterium violaceum, UniProt Q7NWG4); experiment: as above; assay type: binding
T1 construct: gene CV_2025; IMAC-purified recombinant from E. coli BL21 (DE3) Star; dimer
T1 sequence (Q7NWG4 1-459): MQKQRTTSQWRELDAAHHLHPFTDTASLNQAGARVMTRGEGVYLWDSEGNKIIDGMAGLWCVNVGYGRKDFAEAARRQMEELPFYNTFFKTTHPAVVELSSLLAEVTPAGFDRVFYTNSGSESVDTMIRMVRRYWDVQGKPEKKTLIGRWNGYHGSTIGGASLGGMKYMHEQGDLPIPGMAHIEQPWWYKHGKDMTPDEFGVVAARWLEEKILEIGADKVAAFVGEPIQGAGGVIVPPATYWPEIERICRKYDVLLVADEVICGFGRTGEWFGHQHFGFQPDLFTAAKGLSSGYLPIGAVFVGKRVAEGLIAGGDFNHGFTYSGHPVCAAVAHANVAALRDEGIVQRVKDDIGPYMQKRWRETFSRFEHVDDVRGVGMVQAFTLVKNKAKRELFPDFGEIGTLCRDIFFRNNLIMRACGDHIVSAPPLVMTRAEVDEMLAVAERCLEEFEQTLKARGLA

HeTA [4] = biological target: T2, HeTA (Halomonas elongata, UniProt E1V913); experiment: as above; assay type: binding
T2 construct: gene spuC; IMAC-purified recombinant from E. coli BL21 (DE3) Star; dimer
T2 sequence (E1V913 1-461): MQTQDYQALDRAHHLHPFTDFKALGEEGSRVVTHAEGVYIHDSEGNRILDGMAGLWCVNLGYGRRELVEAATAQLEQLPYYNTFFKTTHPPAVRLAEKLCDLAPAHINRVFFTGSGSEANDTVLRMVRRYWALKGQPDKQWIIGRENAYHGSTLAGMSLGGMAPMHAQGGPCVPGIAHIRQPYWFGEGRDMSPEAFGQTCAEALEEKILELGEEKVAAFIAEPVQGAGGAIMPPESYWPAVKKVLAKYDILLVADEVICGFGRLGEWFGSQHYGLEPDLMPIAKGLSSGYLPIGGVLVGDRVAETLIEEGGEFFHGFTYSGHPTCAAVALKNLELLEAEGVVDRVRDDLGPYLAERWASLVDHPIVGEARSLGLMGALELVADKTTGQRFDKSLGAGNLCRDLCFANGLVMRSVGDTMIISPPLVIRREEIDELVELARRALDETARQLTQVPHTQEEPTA

HeTA [5] = biological target: T3, HeTA (Halomonas elongata, UniProt E1V913, N120V); experiment: as above; assay type: binding
T3 construct: gene spuC; IMAC-purified recombinant from E. coli BL21 (DE3) Star; dimer
T3 sequence (E1V913 entry or part of it N120V): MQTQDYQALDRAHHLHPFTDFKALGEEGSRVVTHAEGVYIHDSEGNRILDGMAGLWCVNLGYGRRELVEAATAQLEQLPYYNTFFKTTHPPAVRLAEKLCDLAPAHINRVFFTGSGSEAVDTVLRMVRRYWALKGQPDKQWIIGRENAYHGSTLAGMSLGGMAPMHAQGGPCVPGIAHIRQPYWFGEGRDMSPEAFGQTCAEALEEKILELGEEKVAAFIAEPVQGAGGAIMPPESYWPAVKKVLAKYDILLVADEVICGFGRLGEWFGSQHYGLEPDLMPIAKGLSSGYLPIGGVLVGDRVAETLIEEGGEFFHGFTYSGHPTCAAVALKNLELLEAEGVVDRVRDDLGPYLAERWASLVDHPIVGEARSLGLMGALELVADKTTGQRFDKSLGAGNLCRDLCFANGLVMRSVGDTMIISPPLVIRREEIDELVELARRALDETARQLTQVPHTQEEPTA

CvTA [6] = biological target: T4, CvTA (Chromobacterium violaceum, UniProt Q7NWG4, V124N); experiment: biochemical
T4 construct: gene CV_2025

stoichiometry N [1]: 4
Compound: Pseudomonas fluorescens ω-transaminase (enzyme)

Compound: Cc1ncc(COP(=O)(O)O)c(C=O)c1O [PLP]
Kd [2]: 14.8 ± 2.5 µM | Kd (CvTA [3]): 59 ± 15.8 µM | Kd (HeTA [4]): 12.4 ± 3.6 µM | Kd (HeTA [5]): 30.3 ± 4.1 µM | Kd (CvTA [6]): 16.4 ± 5.6 µM
